Experimental data published in patent US7511034B2, “Dialkylhydroxybenzoic acid derivatives containing metal chelating groups and their therapeutic uses” (Samsung Electronics Co., Ltd., priority 2001, dated 2009).

Legend:
[1] = test system: ischemic neuronal degeneration; assay: Protection of cell damage by ischemia (in vivo), hippocampus Cresyl violet staining; set-up: species or system Mongolian gerbils (Meriones unguiculatus); conditions: gerbils, 60 mg/kg P.O., 4 days reperfusion; for protective effect: 5 min carotid occlusion, pre-treated groups
Description: Male Mongolian gerbils (Meriones unguiculatus) weighing 80-88 g were used in the present study. Each animal was medicated P.O. with vehicle, Ebselen or various test compounds (60 mg/kg in 10% DMSO), after 30 minutes ischemic injury, respectively. 20 animals were allotted into every group. The animals were placed under general anesthesia with a mixture of 2.5% isoflurane in 33% oxygen and 67% nitrous oxide. A midline ventral incision was made in the neck. Both common carotid arteries were isolated, freed of nerve fibers, and occluded using nontraumatic aneurysm clips. Complete interruption of blood flow was confirmed by observing the central artery in eyeballs using ophthalmoscope. After five minutes of occlusion, the aneurysm clips were removed from both common carotid arteries. Restoration of blood flow (reperfusion) was observed directly under the microscope. Sham-operated controls were subjected to the same surgical procedures except that common carotid arteries were not occluded. Body temperature was monitored and maintained at 37° C.±0.5° C. during surgery and during the immediate postoperative period until the animals recovered fully from anesthesia. At the designated reperfusion time (4 days), operated animals and sham animals were killed.
Animals were perfused transcardially with phosphate-buffered saline (PBS, pH 7.4) followed by 4% paraformaldehyde in 0.1 M phosphate buffer (pH 7.4) at 4 days (n=7) after surgery. The brains were removed, and postfixed in the same fixative for 4 hours. The brain tissues were cryoprotected by infiltration with 30% sucrose overnight. Cornoy fixed specimens were cut into 30 μm sections on a cryostat. The sections were sequentially stained by Cresyl violet dye.
Images of staining in the hippocampus of each animal were captured with an Applescanner. […] All data obtained from the quantitative data were analyzed using one-way ANOVA to determine statistical significance. Bonferroni's test was used for post-hoc comparisons. P values below 0.05 or 0.01 were considered statistically significant.

[2] = test system: rats; conditions: oral administration; cited from earlier work
[3] = test system: mice; conditions: oral administration; cited from earlier work
[4] = even in the presence of an excess of glutathione (GSH); cited from earlier work
[5] = test system: multilayer liposome (soybean phosphatidylcholine); assay: Inhibition of lipid peroxidation (liposome oxidation, TBA absorbance at 532 nm); assay type: biochemical; conditions: liposome oxidation initiated by FeCl2, 37° C., 15 minutes; read-out: Inhibitor Concentration (IC50)
Description: The compounds of the present invention were tested for antioxidizing effect in terms of the repression of the radical chain reaction of a multilayer liposome.
The liposome was prepared as followings: 30 mg of commercially available soybean phosphatidylcholine (PC, Sigma Chemical Co., U.S.A.) was dissolved in 1 mL of ethanol, and 200 μL of the ethanol/PC solution was added to 10 mL of 10 mM Tris buffer including 50 mM NaCl (pH 7.0) with stirring.
The ability of a compound to inhibit oxidation of the liposome was evaluated as followings: To 400 μL of the liposomes were added the test compound (in buffer or ethanol) and histidine-FeCl3 (167:33 μM final). Oxidation was initiated by the addition of FeCl2 (33 μM final prepared in nitrogen purged water). The mixtures was shaken at 37° C. for 15 minutes. Thereafter, tubes were treated with 1 mL of 0.67% thiobabituric acid (TBA):10% trichloroacetic acid (2:1, v/v) in 0.25 N HCl solution, containing 1.5% (v/v) t-butylhydroxytoluene (BHT) to terminate oxidation. The aliquots were heated to 100° C. for 20 minutes. After ice cooling, 1 mL of chloroform was added to 1 mL supernatant from tubes and tubes were centrifuged. The absorbances of the resulting supernatant were measured at 532 nm (see: Table below).

[6] = Acute toxicity LD50 in rats; conditions: rat, in vivo

Row | SMILES | IC50 [5] | other results
1 | O=c1c2ccccc2[se]n1-c1ccccc1 [Ebselen] |  | protective effect [1]: 69%; LD50 [2]: ≥ 6,810 mg/kg; LD50 [3]: ≥ 6,810 mg/kg; solubility in water [4]: very little soluble in water
2 | CC(C)(C)c1cc(C(=O)Nc2ccccn2)cc(C(C)(C)C)c1O [Example 1, 3,5-Di-tert-butyl-4-hydroxy-N-pyridin-2-yl-benzamide] | 11.9 µM | 
3 | CC(C)(C)c1cc(C(=O)Nc2ccc(O)c3ncccc23)cc(C(C)(C)C)c1O [Example 3, 3,5-Di-tert-butyl-4-hydroxy-N-(8-hydroxyyquinolin-5-yl) benzamide] | 7.79 µM | 
4 | CC(C)(C)c1cc(C(=O)Nc2nccs2)cc(C(C)(C)C)c1O [Example 4, 3,5-Di-tert-butyl-4-hydroxy-N-thiazol-2-yl benzamide] | 9.69 µM | protective effect [1]: 91%; neuroprotective effects against ischemic neuronal degeneration compared with Ebselen [1]: more neuroprotective effects against ischemic neuronal degeneration than those of Ebselen; LD50 ([6]; ip, intraperitoneal administration in rats): ≥ 800 mg/kg; LD50 ([6]; oral administration in rats): ≥ 6950 mg/kg
5 | CCOC(=O)c1csc(NC(=O)c2cc(C(C)(C)C)c(O)c(C(C)(C)C)c2)n1 [Example 5, 2-(3,5-Di-tert-butyl-4-hydroxy-benzoylamino)-thiazole-4-carboxylic acid ethyl ester] | 11.1 µM | 
6 | Cc1c(C)c2c(c(C)c1O)CCC(C)(C(=O)O)O2 (stereo not shown) [Trolox, reference compound] | 10.2 µM | 

Continued, in another order:

Row | IC50 [5] | SMILES | other results
7 | 12.7 µM | CC(C)(C)c1cc(C(=O)NCc2ccccn2)cc(C(C)(C)C)c1O [Example 2, 3,5-Di-tert-butyl-4-hydroxy-N-pyridin-2-yl methyl benzamide] | 
8 | 122 µM | Cc1cc(C(=O)Nc2ccccn2)cc(C)c1O [Example 6, 4-Hydroxy-3,5-dimethyl-N-pyridin-2-yl-benzamide] | 
9 | 300 µM | Cc1cc(C(=O)NCc2ccccn2)cc(C)c1O [Example 7, 4-Hydroxy-3,5-dimethyl-N-pyridine-2-yl methyl benzamide] | 
